# Laboratory results from patent publication US20250163104A1, “MACROCYCLIC IMMUNOMODULATORS” (priority 2021, published 2025).
# Where a SMILES comes first, the peptide text is derived from it. Bridges are numbered along the chain shown (N, C = ends). [ ]: non-standard residue; d: D form. The star is where a group is joined. ξ: configuration not given here. Phe(4-COOH) = N[C@@H](Cc1ccc(C(=O)O)cc1)C(=O)O; Bip = N[C@@H](Cc1ccc(-c2ccccc2)cc1)C(=O)O; Phe(3-Me) = Cc1cccc(C[C@H](N)C(=O)O)c1; Val(3-OH) = CC(C)(O)[C@H](N)C(=O)O; 4Pal = N[C@@H](Cc1ccncc1)C(=O)O; Cha = N[C@@H](CC1CCCCC1)C(=O)O; Thr(3ξ) = CC(O)[C@H](N)C(=O)O; Carboxymethyl = O=C(O)C*; Orn = NCCC[C@H](N)C(=O)O; Pra = C#CC[C@H](N)C(=O)O; Dab = NCC[C@H](N)C(=O)O; Nva = CCC[C@H](N)C(=O)O; Dap = NC[C@H](N)C(=O)O; Bn = c1ccc(C*)cc1
# Molecular target: T1, human PD-1 / PD-L1-Ig binding on Jurkat cell line over-expressing human PD-1 (Jurkat-PD-1) (Homo sapiens, UniProt Q15116)
# T1 construct: expressed in transfected cells; host or cells: Jurkat
# T1 sequence (Q15116 25-288): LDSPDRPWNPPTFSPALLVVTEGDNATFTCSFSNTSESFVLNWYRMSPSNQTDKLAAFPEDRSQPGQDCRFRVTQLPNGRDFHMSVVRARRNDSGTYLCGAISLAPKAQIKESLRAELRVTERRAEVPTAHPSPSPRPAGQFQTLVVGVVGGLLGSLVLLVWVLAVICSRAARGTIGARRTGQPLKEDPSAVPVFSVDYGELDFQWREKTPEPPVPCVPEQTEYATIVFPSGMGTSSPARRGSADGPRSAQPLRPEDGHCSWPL
# Assay: Jurkat-PD-1 Cell Binding High-Content Screening Assay (CBA)
# Type: cell-based
# Settings: Jurkat HPD1_PDL1 IC50, Jurkat-PD-1 cells, PE-labeled PD-L1-Ig 20 nM final
# Procedure, shortened: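 Compounds were preincubated with Jurkat-hPD-1 cells in DMEM plus 10% fetal calf serum for 2 h at 37° C. Phycoerythrin-labeled PD-L1-Ig (20 nM final) was then added for 1 hour. Cells were fixed in 4% paraformaldehyde with Hoechst 33342, and bound fluorescence was quantified by high-content imaging.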
row,SMILES,IC50 [nM]
1,CC(C)C[C@H]1NC(=O)[C@H](CCCN)NC(=O)[C@H](C(C)C)NC(=O)[C@H](Cc2ccc(-c3ccccc3)cc2)NC(=O)[C@H](C(C)C)NC(=O)[C@H](Cc2c[nH]c3ccccc23)NC(=O)[C@H](CC(=O)O)NC(=O)[C@H](Cc2ccc(OCC(=O)O)cc2)NC(=O)[C@H](CN)NC(=O)CSC[C@@H](C(=O)N[C@@H](C)C(N)=O)NC(=O)[C@H]([C@@H](C)O)NC(=O)[C@H](Cc2ccc(OCc3ccccc3)cc2)NC(=O)[C@H](CC2CCCCC2)NC(=O)[C@H](CCN)NC1=O [Compound 1532] ({CH2CO}-[Dap]Y(Carboxymethyl)DWV[Bip]V[Orn][dL][Dab][Cha]Y(Bn)TCA-NH2; thioether N-14),111

# Same assay, conditions: Jurkat-PD-1 cells, PE-labeled PD-L1-Ig 20 nM final; read-out: Jurkat HPD1_PDL1 IC50
row,SMILES,IC50 [nM]
1,CC(C)C[C@@H]1NC(=O)[C@H](CCN)NC(=O)[C@@H](CC(C)C)NC(=O)[C@H](CCN)NC(=O)[C@H](CCC(=O)O)NC(=O)[C@H](Cc2ccc(-c3ccccc3)cc2)NC(=O)[C@H](C(C)C)NC(=O)[C@H](Cc2c[nH]c3ccccc23)NC(=O)[C@H](CC(=O)O)NC(=O)[C@H](Cc2ccncc2)NC(=O)[C@H](CN)NC(=O)CSC[C@@H](C(=O)N[C@@H](C)C(N)=O)NC(=O)[C@H](CO)NC(=O)[C@H](C(C)C)NC1=O [Compound 1267] ({CH2CO}-[Dap][4Pal]DWV[Bip]E[Dab][dL][Dab]LVSCA-NH2; thioether N-14),99.9
2,CC(C)C[C@H]1NC(=O)[C@H](CCCN)NC(=O)[C@H](CCC(=O)O)NC(=O)[C@H](Cc2ccc(-c3ccccc3)cc2)NC(=O)[C@H](C(C)C)NC(=O)[C@H](Cc2ccccc2F)NC(=O)[C@H](CC(=O)O)NC(=O)[C@H](Cc2ccc(C#N)cc2)NC(=O)[C@H](CN)NC(=O)CSC[C@@H](C(=O)N[C@@H](C)C(N)=O)NC(=O)[C@H]([C@@H](C)O)NC(=O)[C@H](C(C)C)NC(=O)[C@H](CC2CCCCC2)NC(=O)[C@H](CCN)NC1=O [Compound 2214],15.4
3,CC(C)C[C@H]1NC(=O)[C@H](CCCN)NC(=O)[C@H](CCC(=O)O)NC(=O)[C@H](Cc2ccc(-c3ccccc3)cc2)NC(=O)[C@H](C(C)C)NC(=O)[C@H](CCc2ccccc2)NC(=O)[C@H](CC(=O)O)NC(=O)[C@H](Cc2ccc(OCC(=O)O)cc2)NC(=O)[C@H](CN)NC(=O)CSC[C@@H](C(=O)N[C@@H](C)C(N)=O)NC(=O)[C@H]([C@@H](C)O)NC(=O)[C@H](C(C)C)NC(=O)[C@H](CC2CCCCC2)NC(=O)[C@H](CCN)NC1=O [Compound 2155],49.3
4,C#CC[C@H](NC(=O)[C@H](CCN)NC(=O)[C@@H]1CSCC(=O)N[C@@H](CCC)C(=O)N[C@@H](Cc2ccc(OCC(=O)O)cc2)C(=O)N[C@@H](CC(=O)O)C(=O)N[C@@H](Cc2cccc(C)c2)C(=O)N[C@@H](Cc2ccc(C(=O)O)cc2)C(=O)N[C@@H](Cc2ccc(-c3ccccc3)cc2)C(=O)N[C@@H](Cc2ccc(C(=O)O)cc2)C(=O)N[C@@H](CCCN)C(=O)N[C@H](CC(C)C)C(=O)N[C@@H](CCN)C(=O)N[C@@H](CC2CCCCC2)C(=O)N[C@@H](C(C)C)C(=O)N[C@@H](CCC(=O)O)C(=O)N1)C(=O)O [Compound 1822] ({CH2CO}-[Nva]Y(Carboxymethyl)D[Phe(3-Me)][Phe(4-COOH)][Bip][Phe(4-COOH)][Orn][dL][Dab][Cha]VEC[Dab][Pra]-OH; thioether N-14),5.8
5,CC(C)C[C@H]1NC(=O)[C@H](CCCN)NC(=O)[C@H](CCC(=O)O)NC(=O)[C@H](Cc2ccc(-c3ccccc3)cc2)NC(=O)[C@H](C(C)C)NC(=O)[C@H](Cc2ccccc2F)NC(=O)[C@H](CC(=O)O)NC(=O)[C@H](Cc2ccc(C#N)cc2)NC(=O)[C@H](Cc2ccc(OCC(=O)O)cc2)NC(=O)CSC[C@@H](C(=O)N[C@@H](C)C(N)=O)NC(=O)[C@H]([C@@H](C)O)NC(=O)[C@H](C(C)C)NC(=O)[C@H](CC2CCCCC2)NC(=O)[C@H](CCN)NC1=O [Compound 2215],30.4
6,CC(C)C[C@@H]1NC(=O)[C@H](CCCCN)NC(=O)[C@@H](CC(C)C)NC(=O)[C@H](CCCN)NC(=O)[C@H](C(C)C)NC(=O)[C@H](Cc2ccc(-c3ccccc3)cc2)NC(=O)[C@H](C(C)C)NC(=O)[C@H](Cc2c[nH]c3ccccc23)NC(=O)[C@H](CC(=O)O)NC(=O)[C@H](Cc2ccc(O)cc2)NC(=O)[C@H](CC(N)=O)NC(=O)CSC[C@@H](C(=O)N[C@@H](C)C(N)=O)NC(=O)[C@H]([C@@H](C)O)NC(=O)[C@H](C(C)C)NC1=O [Compound 1130] ({CH2CO}-NYDWV[Bip]V[Orn][dL]KLVTCA-NH2; thioether N-14),19.5
7,CC(C)C[C@@H]1NC(=O)[C@H](CCN)NC(=O)[C@@H](CC(C)C)NC(=O)[C@H](CCCN)NC(=O)[C@H](CCC(=O)O)NC(=O)[C@H](Cc2ccc(-c3ccccc3)cc2)NC(=O)[C@H](C(C)C)NC(=O)[C@H](Cc2c[nH]c3ccccc23)NC(=O)[C@H](CC(=O)O)NC(=O)[C@H](Cc2ccc(O)cc2)NC(=O)[C@H](CC(N)=O)NC(=O)CSC[C@@H](C(=O)N[C@@H](C)C(N)=O)NC(=O)[C@H]([C@@H](C)O)NC(=O)[C@H](C(C)C)NC1=O [Compound 1016] ({CH2CO}-NYDWV[Bip]E[Orn][dL][Dab]LVTCA-NH2; thioether N-14),31.9

# Further lines, results first:
row,IC50 [nM],SMILES
1,118,CC(C)C[C@@H]1NC(=O)[C@H](Cc2c[nH]c3ccccc23)NC(=O)[C@H](CC(=O)O)NC(=O)[C@H](Cc2ccc(OCC(=O)O)cc2)NC(=O)[C@H](C(C)O)NC(=O)CSC[C@@H](C(N)=O)NC(=O)[C@H](CO)NC(=O)[C@H](C(C)C)NC(=O)[C@H](CC2CCCCC2)NC(=O)[C@H](CCC(=O)O)NC(=O)[C@@H](CC(C)C)NC(=O)[C@H](Cc2cnc[nH]2)NC(=O)[C@H](C(C)C)NC(=O)[C@H](Cc2ccc(-c3ccccc3)cc2)NC1=O (stereo partly drawn) [Compound 2608] ({CH2CO}-[Thr(3ξ)]Y(Carboxymethyl)DWL[Bip]VH[dL]E[Cha]VSC-NH2; thioether N-14)
2,632,C#CC[C@H](NC(=O)[C@@H](C)NC(=O)[C@@H]1CSCC(=O)N[C@@H](Cc2ccncc2)C(=O)N[C@@H](Cc2ccc(OCC(=O)O)cc2)C(=O)N[C@@H](CC(=O)O)C(=O)N[C@@H](Cc2cccc(C)c2)C(=O)N[C@@H](Cc2ccc(OCC(=O)O)cc2)C(=O)N[C@@H](Cc2ccc(-c3ccccc3)cc2)C(=O)N[C@@H](Cc2ccc(OCC(=O)O)cc2)C(=O)N[C@@H](CCCN)C(=O)N[C@H](CC(C)C)C(=O)N[C@@H](CCN)C(=O)N[C@@H](CC2CCCCC2)C(=O)N[C@@H](C(C)(C)O)C(=O)N[C@@H](CO)C(=O)N1)C(N)=O [Compound 2328] ({CH2CO}-[4Pal]Y(Carboxymethyl)D[Phe(3-Me)]Y(Carboxymethyl)[Bip]Y(Carboxymethyl)[Orn][dL][Dab][Cha][Val(3-OH)]SC[dA][Pra]-NH2; thioether N-14)
3,6.5,CC(C)C[C@H]1NC(=O)[C@H](CCCN)NC(=O)[C@H](CCC(=O)O)NC(=O)[C@H](Cc2ccc(-c3ccccc3)cc2)NC(=O)[C@H](C(C)C)NC(=O)[C@H](Cc2c[nH]c3ccccc23)NC(=O)[C@H](CC(=O)O)NC(=O)[C@H](Cc2ccc(OCC(=O)O)cc2)NC(=O)[C@H](Cc2cnc[nH]2)NC(=O)CSC[C@@H](C(=O)N[C@@H](CC(N)=O)C(N)=O)NC(=O)[C@H](C(C)O)NC(=O)[C@H](C(C)C)NC(=O)[C@H](CC2CCCCC2)NC(=O)[C@H](CCN)NC1=O (stereo partly drawn) [Compound 2562] ({CH2CO}-HY(Carboxymethyl)DWV[Bip]E[Orn][dL][Dab][Cha]V[Thr(3ξ)]CN-NH2; thioether N-14)
